From ChEMBL document CHEMBL3352394, “Acinetobacter baumannii OxPhos inhibitors as selective anti-infective agents” (Bioorg Med Chem Lett, 2015)
Converted amounts (≈) assume the structure as drawn. The source made the active and inactive calls. The calls are words filed in the database; no cut-off is given here.

Experiments:
[1] = Inhibition of Electron transport protein complex-dependent oxidative phosphorylation system-mediated ATP synthesis in Acinetobacter baumannii membranes; format: cell membranes
[2] = Selectivity ratio of IC50 for oxidative phosphorylation system-mediated ATP synthesis in bovine heart submitochondrial particle to IC50 for oxidative phosphorylation system-mediated ATP synthesis in Acinetobacter baumannii membranes; format: cell membranes
Acinetobacter baumannii [3] = assay: Antimicrobial activity against Acinetobacter baumannii; format: functional
[4] = Inhibition of Electron transport protein complex-dependent oxidative phosphorylation system-mediated ATP synthesis in bovine heart submitochondrial particle; set-up: species or system Bos taurus
Acinetobacter baumannii [5] = assay: Bactericidal activity against Acinetobacter baumannii at 8 times IC50 by time-kill assay; format: functional, organism-based
[6] = Cytotoxicity against mouse NIH/3T3 cells after 1 hr by MTS reduction assay in absence of serum; format: cell-based; conditions: NIH3T3, 1 h
HepG2 = assay: Cytotoxicity against human HepG2 cells after 1 hr by MTS reduction assay in absence of serum; format: cell-based; conditions: HepG2, 1 h
[7] = Half life in mouse liver microsomes; format: ADME
Acinetobacter baumannii [8] = assay: Antimicrobial activity against Acinetobacter baumannii ATCC 17978; format: functional
Acinetobacter baumannii [9] = assay: Antimicrobial activity against Acinetobacter baumannii BAA-1606; format: functional
Staphylococcus aureus [10] = assay: Antimicrobial activity against methicillin-resistant Staphylococcus aureus USA 300; format: functional
Klebsiella pneumoniae [11] = assay: Antimicrobial activity against Klebsiella pneumoniae ATCC 13883 in presence of 40% serum; format: functional
Klebsiella pneumoniae [12] = assay: Antimicrobial activity against Klebsiella pneumoniae ATCC 4352; format: functional
Acinetobacter baumannii [13] = assay: Inhibition of NDH1-mediated O2 consumption in Acinetobacter baumannii membranes at 50 uM in presence of NADH; format: cell membranes
Klebsiella pneumoniae [14] = assay: Antimicrobial activity against Klebsiella pneumoniae ATCC 13883; format: functional
Escherichia coli [15] = assay: Antimicrobial activity against Escherichia coli ATCC 25922 in presence of 40% serum; format: functional
Staphylococcus aureus [16] = assay: Antimicrobial activity against Staphylococcus aureus ATCC 25923; format: functional
Acinetobacter baumannii [17] = assay: Inhibition of NDH1-mediated O2 consumption in Acinetobacter baumannii membranes at 50 uM in presence of NADH and ascorbate/TMPD; format: cell membranes
Pseudomonas aeruginosa = assay: Antimicrobial activity against Pseudomonas aeruginosa ATCC 10145; format: functional
Acinetobacter baumannii [18] = assay: Inhibition of NDH1-mediated O2 consumption in Acinetobacter baumannii membranes at 50 to 100 uM in presence of succinate; format: cell membranes
[19] = Half life in human liver microsomes; format: ADME
Escherichia coli [20] = assay: Antimicrobial activity against Escherichia coli ATCC 25922; format: functional

Molecule	IC50 [1]	Ratio IC50 [2]	MIC (Acinetobacter baumannii [3])	IC50 [4]	IC50 [6]	IC50 (HepG2)	also measured
N=c1n(CCCOc2ccc(Cl)cc2Cl)c2ccccc2n1CCN1CCOCC1	9.2 µM	2.8	> 100 µM	25.5 µM	76 µM	215 µM	–
CCCCn1c(=N)n(CCCOc2ccc(Cl)cc2Cl)c2ccccc21	3.8 µM	0.5	50 µM (≈ 19.6 µg/mL)	1.8 µM	28 µM	72 µM	–
CCn1c(=N)n(CCCOc2ccc(Cl)cc2Cl)c2ccccc21	6.4 µM	1.4	50 µM (≈ 18.2 µg/mL)	8.8 µM	24 µM	96 µM	–
CCN(CC)CCCNc1nc2ccccc2n1CC(O)COc1ccc(Cl)cc1Cl (configuration not stated)	10 µM	1.3	> 100 µM	13 µM	–	–	–
COLISTIN	–	–	–	–	–	–	MIC90 (Acinetobacter baumannii [3]): 2 µg/mL
CCCN(CCC)CCn1c(=N)n(CCCOc2ccc(Cl)cc2Cl)c2ccccc21	2.8 µM	1	25 µM (≈ 11.6 µg/mL)	2.9 µM	28 µM	49 µM	–
N=c1n(CCCOc2ccc(Cl)cc2Cl)c2ccccc2n1Cc1ccc(C(F)(F)F)nc1.O=C(O)C(F)(F)F	0.9 µM	1	50 µM	0.9 µM	22 µM	35 µM	half-life [7]: > 90 min
N=c1n(CCCOc2ccc(Cl)cc2Cl)c2ccccc2n1CCc1ccccn1	3.2 µM	2.1	100 µM (≈ 44.1 µg/mL)	6.6 µM	36 µM	60 µM	–
N=c1n(CCCOc2ccc(Cl)cc2Cl)c2ccccc2n1CCN1CCCC1=O	3.6 µM	0.9	> 100 µM	3.1 µM	99 µM	63 µM	–
N=c1n(CCCOc2ccc(Cl)cc2Cl)c2ccccc2n1CCn1ccnc1	18.3 µM	2.7	> 100 µM	49.7 µM	61 µM	137 µM	–
CCN(CC)CCn1c(=O)n(CC(O)COc2ccc(Cl)cc2Cl)c2ccccc21 (configuration not stated)	12 µM	1.8	> 100 µM	21 µM	–	–	–
Cc1noc(C)c1Cn1c(=N)n(CCCOc2ccc(Cl)cc2Cl)c2ccccc21	1.9 µM	3.2	100 µM (≈ 44.5 µg/mL)	6.1 µM	94 µM	168 µM	–
N=c1n(CCCOc2ccc(Cl)cc2Cl)c2ccccc2n1CC(=O)N1CCN(c2ccccc2)CC1.O=C(O)C(F)(F)F	1 µM	0.8	> 100 µM	0.8 µM	400 µM	1300 µM	half-life [7]: 25.2 min
OC(CNCc1nc2ccccc2[nH]1)COc1ccc(Cl)cc1Cl (configuration not stated)	41 µM	2.6	> 100 µM	106 µM	–	–	–
N=c1n(CCCOc2ccc(Cl)cc2Cl)c2ccccc2n1CCCN1CCCCC1	3.6 µM	6.2	50 µM (≈ 23.1 µg/mL)	22.4 µM	37 µM	83 µM	–
CCN(CC)C(=O)Cn1c(=N)n(CCCOc2ccc(Cl)cc2Cl)c2ccccc21	6 µM	1.9	> 100 µM	11.4 µM	68 µM	143 µM	–
CC(C)(C)OC(=O)N1CCC(CCn2c(=N)n(CCCOc3ccc(Cl)cc3Cl)c3ccccc32)CC1	1.7 µM	0.6	50 µM (≈ 27.4 µg/mL)	1 µM	25 µM	42 µM	–
Br.CCN(CC)CCn1c(=N)n(CCCOc2ccc(Cl)cc2Cl)c2ccccc21	0.61 µM	3	13 µM	2.9 µM	20 µM	83 µM	MIC (Staphylococcus aureus [10]): 5 µg/mL; MIC (Klebsiella pneumoniae [11]): > 22 µg/mL; MIC (Klebsiella pneumoniae [12]): 5 µg/mL; inhibition (Acinetobacter baumannii [13]): Active; MIC (Klebsiella pneumoniae [14]): 22 µg/mL; MIC (Escherichia coli [15]): > 22 µg/mL; MIC (Staphylococcus aureus [16]): 11 µg/mL; MIC (Acinetobacter baumannii [8]): 12.5 µg/mL; inhibition (Acinetobacter baumannii [17]): inactive; MIC (Pseudomonas aeruginosa): > 22 µg/mL; inhibition (Acinetobacter baumannii [18]): inactive; half-life [19]: 9.2 min; half-life [7]: 13 min; MIC (Acinetobacter baumannii [9]): 12.5 µg/mL; Activity (Acinetobacter baumannii [5]): Active; MIC (Escherichia coli [20]): 11 µg/mL
CCN(CC)CCn1c(=N)n(CC(O)COc2ccc(Cl)cc2Cl)c2ccccc21 (configuration not stated)	1.9 µM	–	25 µM (≈ 11.3 µg/mL)	5.6 µM	–	–	inhibition (Acinetobacter baumannii [13]): Active; Activity (Acinetobacter baumannii [5]): Active
CCOCCOCCn1c(=N)n(CCCOc2ccc(Cl)cc2Cl)c2ccccc21	5.6 µM	1.1	> 100 µM	6 µM	62 µM	151 µM	–

Now from value to molecule, other results behind:

IC50 [1]	Ratio IC50 [2]	MIC (Acinetobacter baumannii [3])	IC50 [4]	Molecule	IC50 [6]	IC50 (HepG2)	also measured
5 µM	1.9	25 µM (≈ 10.5 µg/mL)	9.4 µM	CCN(CC)CCn1c(=N)n(CCCc2ccc(Cl)cc2Cl)c2ccccc21	–	–	Activity (Acinetobacter baumannii [5]): Active
7.8 µM	1.2	> 100 µM	9.6 µM	OC(COc1ccc(Cl)cc1Cl)Cn1c(NCCCN2CCOCC2)nc2ccccc21 (configuration not stated)	–	–	–
40 µM	2.5	> 100 µM	100 µM	CCN(CC)CCn1c(N)nc2ccccc21	–	–	–
0.9 µM	0.9	25 µM (≈ 8.41 µg/mL)	0.8 µM	Nc1nc2ccccc2n1CCCOc1ccc(Cl)cc1Cl	–	–	MIC (Acinetobacter baumannii [8]): 6.25 µg/mL (≈ 18.6 µM); MIC (Acinetobacter baumannii [9]): 6.25 µg/mL (≈ 18.6 µM)
1.7 µM	1.5	13 µM (≈ 6.02 µg/mL)	2.5 µM	CC(C)N(CCn1c(=N)n(CCCOc2ccc(Cl)cc2Cl)c2ccccc21)C(C)C	19 µM	39 µM	–
8 µM	2.5	50 µM (≈ 22.5 µg/mL)	20 µM	CCN(CC)CCCNc1nc2ccccc2n1CCCOc1ccc(Cl)cc1Cl	–	–	–
5 µM	9.4	> 100 µM	47 µM	CCN(CC)CCNc1nc2ccccc2n1CC(O)COc1ccc(Cl)cc1Cl (configuration not stated)	–	–	–
2.1 µM	1.1	25 µM	2.2 µM	N=c1n(CCCOc2ccc(Cl)cc2Cl)c2ccccc2n1CCCc1ccccc1.O=C(O)C(F)(F)F	36 µM	65 µM	half-life [7]: 48.2 min
2.1 µM	2.3	13 µM (≈ 5.63 µg/mL)	4.9 µM	N=c1n(CCCOc2ccc(Cl)cc2Cl)c2ccccc2n1CCN1CCCC1	12 µM	67 µM	–
6.9 µM	2.7	100 µM (≈ 42.1 µg/mL)	18.3 µM	CCN(CC)CCn1c(=N)n(CCOc2ccc(Cl)cc2Cl)c2ccccc21	–	–	Activity (Acinetobacter baumannii [5]): Active
